Laboratory results taken from ChEMBL document CHEMBL1135266, “Covalent analogues of DNA base-pairs and triplets. Part 2: synthesis and cytostatic activity of bis(purin-6-yl)acetylenes,-diacetylenes and related compounds” (Bioorg Med Chem Lett, 2002).

What was measured:
HeLa [1] = experiment: Tested in vitro for the inhibition of cell growth of human cervix carcinoma HeLa S3 cell (ATCC CCL 2.2); na = not active (inhibition of cell growth at 10 uM was lower than 20%); type: functional, cell-based
L929 [2] = experiment: Tested in vitro for the inhibition of cell growth of murine L929 cells (ATCC CCL 1); na = not active (inhibition of cell growth at 10 uM was lower than 20%); type: functional, cell-based, Mus musculus
CCRF-CEM [3] = experiment: Tested in vitro for the inhibition of cell growth of human T lymphoblastoid CCRF-CEM cell line (ATCC CCL 119); na = not active (inhibition of cell growth at 10 uM was lower than 20%); type: functional, cell-based
L1210 [4] = experiment: Tested in vitro for the inhibition of cell growth of mouse leukemia L1210 cell (ATCC CCL 219); na = not active (inhibition of cell growth at 10 uM was lower than 20%); type: functional, cell-based
L929 [5] = experiment: Tested in vitro for the inhibition of cell growth of murine L929 cells (ATCC CCL 1); type: functional, cell-based; conditions: Mus musculus
CCRF-CEM [6] = experiment: Tested in vitro for the inhibition of cell growth of human T lymphoblastoid CCRF-CEM cell line (ATCC CCL 119); type: functional, cell-based
L1210 [7] = experiment: Tested in vitro for the inhibition of cell growth of mouse leukemia L1210 cell (ATCC CCL 219); type: functional, cell-based
HeLa [8] = experiment: Tested in vitro for the inhibition of cell growth of human cervix carcinoma HeLa S3 cell (ATCC CCL 2.2); type: functional, cell-based

Compound	IC50 (HeLa [1])	IC50 (CCRF-CEM [3])	IC50 (L1210 [4])	IC50 (CCRF-CEM [6])	IC50 (L1210 [7])	IC50 (HeLa [8])	IC50 (L929 [2])	IC50 (L929 [5])
C(#Cc1ncnc2c1ncn2Cc1ccccc1)c1ncnc2c1ncn2Cc1ccccc1	Not Active	–	–	900 nM	1800 nM	–	–	5300 nM
C(C#Cc1ncnc2c1ncn2C1CCCCO1)#Cc1ncnc2c1ncn2C1CCCCO1 (stereo not given)	–	–	–	580 nM	700 nM	13300 nM	–	1000 nM
C(=Cc1ncnc2c1ncn2Cc1ccccc1)c1ncnc2c1ncn2Cc1ccccc1	Not Active	Not Active	Not Active	–	–	–	Not Active	–
C(#Cc1ncnc2c1ncn2C1CCCCO1)c1ncnc2c1ncn2Cc1ccccc1 (stereo not given)	–	–	–	320 nM	900 nM	6000 nM	–	1900 nM
C(C#Cc1ncnc2c1ncn2Cc1ccccc1)#Cc1ncnc2c1ncn2Cc1ccccc1	Not Active	–	–	430 nM	370 nM	–	–	6300 nM

Second part, led by results:

IC50 (HeLa [1])	IC50 (CCRF-CEM [3])	IC50 (L1210 [4])	IC50 (CCRF-CEM [6])	IC50 (L1210 [7])	IC50 (HeLa [8])	Compound	IC50 (L929 [2])	IC50 (L929 [5])
Not Active	Not Active	Not Active	–	–	–	c1ccc(Cn2cnc3c(CCc4ncnc5c4ncn5Cc4ccccc4)ncnc32)cc1	Not Active	–
–	–	–	500 nM	< 20 nM	> 25000 nM	O=c1[nH]c(=O)n([C@H]2C[C@H](O)[C@@H](CO)O2)cc1F [FLOXURIDINE]	–	> 25000 nM
–	–	–	370 nM	500 nM	15000 nM	CCCCCn1cnc2c(C#CC#Cc3ncnc4c3ncn4CCCCC)ncnc21	–	1300 nM
–	–	–	360 nM	1500 nM	15000 nM	CCCCCn1cnc2c(C#Cc3ncnc4c3ncn4CCCCC)ncnc21	–	3000 nM
Not Active	Not Active	Not Active	–	–	–	C(=C\c1ncnc2c1ncn2Cc1ccccc1)/c1ncnc2c1ncn2Cc1ccccc1	Not Active	–
